{
  "source": "ChEMBL document CHEMBL1201862",
  "about": "“PubChem BioAssay data set” (2004)",
  "key": {"HEK293": {"system": "HEK293", "test": "cells", "assay_type": "functional, cell-based", "details": "Homo sapiens"}, "[1]": {"molecular_target": "T1, Nuclear receptor subfamily 0 group B member 1 (Homo sapiens, UniProt P51843)", "T1 sequence (P51843 whole entry)": "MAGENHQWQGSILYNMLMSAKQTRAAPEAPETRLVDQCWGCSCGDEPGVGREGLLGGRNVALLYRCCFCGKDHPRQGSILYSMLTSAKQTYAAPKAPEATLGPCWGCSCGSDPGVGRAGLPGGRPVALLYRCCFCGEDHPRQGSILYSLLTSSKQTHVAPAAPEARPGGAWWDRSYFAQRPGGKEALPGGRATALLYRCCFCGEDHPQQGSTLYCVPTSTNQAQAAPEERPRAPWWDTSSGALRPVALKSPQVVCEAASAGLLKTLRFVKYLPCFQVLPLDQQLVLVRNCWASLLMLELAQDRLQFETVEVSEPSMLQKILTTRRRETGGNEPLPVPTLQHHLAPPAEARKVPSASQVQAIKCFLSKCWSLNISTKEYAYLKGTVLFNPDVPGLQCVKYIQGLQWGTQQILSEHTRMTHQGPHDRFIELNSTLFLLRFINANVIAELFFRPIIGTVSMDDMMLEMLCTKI", "test": "Luminescence-based cell-based high throughput dose response assay for inhibitors of the orphan nuclear receptor subfamily 0, group B, member 1 (DAX1; NR0B1). [Related pubchem assays (depositor defined):AID504766, AID504790]", "assay_type": "functional"}, "[2]": {"molecular_target": "T2, Trace amine-associated receptor 1 (Homo sapiens, UniProt Q96RJ0)", "T2 sequence (Q96RJ0 whole entry)": "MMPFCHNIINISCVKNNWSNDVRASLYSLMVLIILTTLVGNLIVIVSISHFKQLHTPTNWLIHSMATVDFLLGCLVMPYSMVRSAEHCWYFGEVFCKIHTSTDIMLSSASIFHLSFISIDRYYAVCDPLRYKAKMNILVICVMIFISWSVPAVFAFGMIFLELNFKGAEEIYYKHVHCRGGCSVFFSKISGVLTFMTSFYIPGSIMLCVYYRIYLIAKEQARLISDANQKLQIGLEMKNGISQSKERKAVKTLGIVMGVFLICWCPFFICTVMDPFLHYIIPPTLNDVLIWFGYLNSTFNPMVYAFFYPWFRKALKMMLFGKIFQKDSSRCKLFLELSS", "test": "Fluorescence-based cell-based high throughput dose response assay to identify agonists of the human trace amine associated receptor 1 (TAAR1).", "assay_type": "functional"}, "cells [3]": {"test": "cells", "assay_type": "functional, cell-based"}, "[4]": {"test": "viability loss in Vero cells – cytotoxicity control for Vif-APOBEC3G degradation inhibitor project, dose response (AID 1117358)", "assay_type": "functional", "details": "Vero"}, "cells [5]": {"test": "cells", "assay_type": "functional, cell-based", "remark": "listed apart in the source"}, "[6]": {"molecular_target": "T2, Trace amine-associated receptor 1", "test": "Counterscreen for agonists of the human trace amine associated receptor 1 (hTAAR1): Fluorescence-based cell-based high throughput dose response assay to identify hTAAR1 agonist that also desensitize TAAR1 receptor response.", "assay_type": "functional"}, "[7]": {"molecular_target": "T3, Hepatocyte nuclear factor 4-alpha (Homo sapiens, UniProt P41235)", "T3 sequence (P41235 whole entry)": "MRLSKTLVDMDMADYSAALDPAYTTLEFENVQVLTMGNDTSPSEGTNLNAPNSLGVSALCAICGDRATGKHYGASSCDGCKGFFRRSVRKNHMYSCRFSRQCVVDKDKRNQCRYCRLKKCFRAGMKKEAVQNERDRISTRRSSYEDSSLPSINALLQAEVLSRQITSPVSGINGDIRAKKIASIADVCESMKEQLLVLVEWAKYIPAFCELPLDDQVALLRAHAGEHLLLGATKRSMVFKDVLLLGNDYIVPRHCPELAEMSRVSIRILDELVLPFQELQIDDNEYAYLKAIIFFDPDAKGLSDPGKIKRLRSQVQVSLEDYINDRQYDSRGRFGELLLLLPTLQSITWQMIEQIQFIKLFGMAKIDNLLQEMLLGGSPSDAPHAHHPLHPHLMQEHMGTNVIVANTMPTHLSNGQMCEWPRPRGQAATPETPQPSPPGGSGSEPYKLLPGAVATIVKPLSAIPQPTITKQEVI", "assay_type": "functional, cell-based"}, "[8]": {"test": "Luminescence Cell-Based Dose Retest to Confirm Inhibitors of Cancer Stem Cells. [Related pubchem assays (depositor defined):AID2717, AID2721]", "assay_type": "functional", "details": "Homo sapiens"}, "[9]": {"test": "HIV-1 Vif–A3G interaction blockers – biochemical, TR-FRET, GST-Vif 1-94, biotin-A3G peptide, dose response retest, primary screen (AID 1117319);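 note: TR-FRET signal of purified GST-Vif binding a biotinylated A3G peptide; inhibitors lower the FRET signal by blocking Vif and A3G binding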", "assay_type": "functional"}, "[10]": {"test": "P. falciparum Dd2 growth inhibitors, dose response, SYBR Green, cherry-picked samples (AID 1159567)", "assay_type": "functional, cell-based"}, "[11]": {"test": "A2780 cell killing – plate reader, dry powder samples, cytotoxicity control, dose response (AID 743046)", "assay_type": "functional, cell-based"}, "[12]": {"test": "OVCAR8 cell viability loss – plate reader, dry powder samples, PAX8 project, dose response (AID 743197)", "assay_type": "functional, cell-based", "details": "OVCAR-8"}, "Paired box protein Pax-8": {"molecular_target": "Paired box protein Pax-8 (Homo sapiens, UniProt Q06710)", "sequence (Q06710 whole entry)": "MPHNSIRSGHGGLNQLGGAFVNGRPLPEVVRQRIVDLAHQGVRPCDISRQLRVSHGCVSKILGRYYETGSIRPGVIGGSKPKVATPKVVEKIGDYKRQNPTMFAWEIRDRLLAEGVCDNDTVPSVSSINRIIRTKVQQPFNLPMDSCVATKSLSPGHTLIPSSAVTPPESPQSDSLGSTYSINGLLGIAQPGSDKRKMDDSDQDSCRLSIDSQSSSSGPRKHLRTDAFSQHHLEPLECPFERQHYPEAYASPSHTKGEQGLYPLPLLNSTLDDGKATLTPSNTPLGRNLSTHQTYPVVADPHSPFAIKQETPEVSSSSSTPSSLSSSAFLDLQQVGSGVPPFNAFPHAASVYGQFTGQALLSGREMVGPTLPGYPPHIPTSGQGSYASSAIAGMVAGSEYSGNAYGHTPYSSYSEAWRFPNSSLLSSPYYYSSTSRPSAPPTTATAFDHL", "test": "PAX8 transcriptional activity inhibition in RMG-I – RMG-I cells, luciferase, cherry-pick, dose response (AID 687027);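 note: luciferase reporter driven by Pax8 target thyroperoxidase promoter measured by SteadyGlo luminescence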", "assay_type": "functional, cell-based"}},
  "note": "The source made the active and inactive calls.",
  "data": [
    {"compound": "CCOC(=O)CSc1nc2cc3c(cc2cc1C#N)OCCO3", "values": [
      {"measurement": "IC50", "setting": "HEK293", "value": "> 67.5 µM (inactive)"},
      {"measurement": "IC50", "setting": "[1]", "value": "> 67.5 µM (inactive)"}
    ]},
    {"compound": "O=C(CC(O)CCc1ccccc1)c1ccc(O)cc1", "note": "(configuration not stated)", "values": [
      {"measurement": "IC50", "setting": "HEK293", "value": "> 67.5 µM (inactive)"},
      {"measurement": "IC50", "setting": "[1]", "value": "> 67.5 µM (inactive)"}
    ]},
    {"compound": "COc1cc(CNCCc2ccccc2F)ccc1OCc1ccc(Cl)nc1", "values": [
      {"measurement": "EC50", "setting": "[2]", "value": "2.83 µM (active)"},
      {"measurement": "EC50", "setting": "cells [3]", "value": "11.1 µM (inactive)"},
      {"measurement": "CC50", "setting": "[4]", "value": "> 40 µM (active)"},
      {"measurement": "IC50", "setting": "cells [5]", "value": "28.7 µM (inactive)"},
      {"measurement": "IC50", "setting": "[6]", "value": "9.47 µM (active)"}
    ]},
    {"compound": "CC(C)(C)NC(=O)C(c1ccncc1)n1c(=O)c(-c2ccco2)nc2ccccc21", "note": "(configuration not stated)", "values": [
      {"measurement": "IC50", "setting": "[7]", "value": "8.03 µM (active)"}
    ]},
    {"compound": "Cn1nc(-c2ccc(Cl)cc2)c2cc(C(=O)NCCCN3CCOCC3)sc21", "values": [
      {"measurement": "AC50", "setting": "[8]", "value": "2.03 µM (active)"},
      {"measurement": "CC50", "setting": "[4]", "value": "> 40 µM (active)"},
      {"measurement": "IC50", "setting": "[9]", "value": "> 100 µM (active)"}
    ]},
    {"compound": "CO[C@@H]1CN(C)C(=O)c2cc(NC(=O)c3nc4ccccc4s3)ccc2OC[C@H](C)NC[C@H]1C", "values": [
      {"measurement": "AC50", "setting": "[10]", "value": "10 µM (active)"},
      {"measurement": "AC50", "setting": "[11]", "value": "0.437 µM (active)"}
    ]},
    {"compound": "C[C@@H]1CN([C@H](C)CO)C(=O)c2cc(NC(=O)Nc3ccc(F)cc3)ccc2O[C@@H](C)CCCCO[C@H]1CN(C)S(=O)(=O)c1ccc(Cl)cc1", "values": [
      {"measurement": "AC50", "setting": "[12]", "value": "> 70 µM (inactive)"},
      {"measurement": "AC50", "setting": "[11]", "value": "5.81 µM (active)"},
      {"measurement": "AC50", "setting": "Paired box protein Pax-8", "value": "6.11 µM (active)"}
    ]},
    {"compound": "COc1ncnc2c1ncn2CCCNCC(C)c1ccccc1", "note": "(configuration not stated)", "values": [
      {"measurement": "EC50", "setting": "[2]", "value": "3.84 µM (active)"},
      {"measurement": "EC50", "setting": "cells [3]", "value": "> 29.9 µM (inactive)"},
      {"measurement": "IC50", "setting": "cells [5]", "value": "> 29.9 µM (inactive)"},
      {"measurement": "IC50", "setting": "[6]", "value": "12.8 µM (inactive)"}
    ]}
  ]
}
